Data as given in US6414007B1, “Oxiranyl-triazoline thiones and their use as microbicides” (Bayer Aktiengesellschaft, priority 1997, dated 2002).

Experiments:
[1] = test system: Erysiphe graminis f.sp. hordei; experiment: Erysiphe test (barley)/curative; format: in vivo; conditions: curative (sprayed 48 hours after inoculation), application rate 250 g/ha, evaluation 7 days after inoculation
Method: (§1) Erysiphe test (barley)/curative Solvent: 25 parts by weight of N,N-dimethylacetamide Emulsifier: 0.6 parts by weight of alkylaryl polyglycol ether To produce a suitable preparation of active compound, 1 part by weight of active compound is mixed with the stated amounts of solvent and emulsifier, and the concentrate is diluted with water to the desired concentration. To test for curative activity, young plants are dusted with spores of Erysiphe graminis f.sp. hordei. 48 hours after the inoculation, the plants are sprayed with the preparation of active compound at the stated application rate. The plants are placed in a greenhouse at a temperature of approximately 20° C. and a relative atmospheric humidity of approximately 80% to promote the development of mildew pustules. Evaluation is carried out 7 days after the inoculation. 0% means an efficacy which corresponds to that of the control, whereas an efficacy of 100% means that no infections are observed.

Coriolus versicolor = experiment: Inhibition test on giant colonies of Basidiomycetes; format: cell-based; conditions: Trametes versicolor; 6 ppm of active compound, malt extract peptone agar, 26° C., evaluation after 3 or 7 days; read-out: Inhibition in per cent of radial growth of giant colonies
Method: Inhibition test on giant colonies of Basidiomycetes Solvent: Dimethylsulphoxide To produce a suitable preparation of active compound, 0.2 parts by weight of active compound are admixed to 99.8 parts by weight of the abovementioned solvent. An agar, prepared by using malt extract peptone, is mixed in a liquid state with the preparation of active compound at the particular desired application rate. After solidification, the resultant nutrient medium is incubated at 26° C. with mycelium pieces punched out of colonies of Coriolus versicolor. Evaluation is carried out after 3 or 7 days' storage at 26° C. by measuring the growth of the mycelium and scoring the resulting inhibition in percent in comparison to the untreated control. 0% means an inhibition of growth which corresponds to that of the untreated control, while an inhibition of growth of 100% means that no growth of mycelium is observed.

Podosphaera leucotricha = experiment: Podosphaera test (apple)/protective; format: in vivo; conditions: protective, evaluation 10 days after inoculation
Method: Podosphaera test (apple)/protective Solvent: 47 parts by weight of acetone Emulsifier: 3 parts by weight of alkylaryl polyglycol ether To produce a suitable preparation of active compound, 1 part by weight of active compound is mixed with the stated amounts of solvent and emulsifier, and the concentrate is diluted with water to the desired concentration. To test for protective activity, young plants are sprayed with the preparation of active compound at the stated application rate. After the spray coating has dried on, the plants are inoculated with an aqueous spore suspension of the causative organism of apple mildew Podosphaera leucotricha. The plants are then placed in a greenhouse at approximately 23° C. and a relative atmospheric humidity of approximately 70%. Evaluation was carried out 10 days after the inoculation. 0% means an efficacy which corresponds to that of the control, whereas an efficacy of 100% means that no infections are observed.

Leptosphaeria nodorum = Leptosphaeria nodorum test (wheat)/protective; format: in vivo; conditions: protective, application rate 250 g/ha, evaluation 10 days after inoculation
Method: (§2) Leptosphaeria nodorum test (wheat)/protective Solvent: 25 parts by weight of N,N-dimethylacetamide Emulsifier: 0.6 parts by weight of alkylaryl polyglycol ether To produce a suitable preparation of active compound, 1 part by weight of active compound is mixed with the stated amounts of solvent and emulsifier, and the concentrate is diluted with water to the desired concentration. To test for protective activity, young plants are sprayed with the preparation of active compound at the stated application rate. After the spray coating has dried on, the plants are dusted with a spore suspension of Leptosphaeria nodorum. The plants remain in an incubation cabin at 20° C. and 100% relative atmospheric humidity for 48 hours. The plants are placed in a greenhouse at a temperature of approximately 15° C. and a relative atmospheric humidity of 80%. Evaluation is carried out 10 days after the inoculation. 0% means an efficacy which corresponds to that of the control, whereas an efficacy of 100% means that no infections are observed.

[2] = test system: Erysiphe graminis f.sp. hordei; experiment: Erysiphe test (barley)/protective; format: in vivo; conditions: protective, application rate 125 g/ha, evaluation 7 days after inoculation
Method: as §1, with “(barley)/protective” for “(barley)/curative”, “protective” for “curative”, “young” for “young plants are dusted with spores of Erysiphe graminis f.sp. hordei. 48 hours after the inoculation, the”, “rate. After the spray coating has dried on, the plants are dusted with spores of Erysiphe graminis f.sp. hordei.” for “rate.”

Puccinia recondita [3] = experiment: Puccinia test (wheat)/protective; format: in vivo; conditions: protective, application rate 125 g/ha, evaluation 10 days after inoculation
Method: as §2, with “Puccinia” for “Leptosphaeria nodorum”, “sprayed” for “dusted”, “[…]” for “spore”, “Puccinia recondita.” for “Leptosphaeria nodorum.”, “20°” for “15°”, “approximately 80% to promote the development of rust pustules.” for “80%.”

Puccinia recondita [4] = experiment: Puccinia test (wheat)/curative; format: in vivo; conditions: curative, application rate 125 g/ha, evaluation 10 days after inoculation
Method: Puccinia test (wheat)/curative Solvent: 25 parts by weight of N,N-dimethylacetamide Emulsifier: 0.6 parts by weight of alkylaryl polyglycol ether To produce a suitable preparation of active compound, 1 part by weight of active compound is mixed with the stated amounts of solvent and emulsifier, and the concentrate is diluted with water to the desired concentration. To test for curative activity, young plants are sprayed with a Conidia suspension of Puccinia recondita. The plants remain in an incubation cabin at 20° C. and 100% relative atmospheric humidity for 48 hours. The plants are then sprayed with the preparation of active compound at the stated application rate. The plants are placed in a greenhouse at a temperature of approximately 20° C. and a relative atmospheric humidity of approximately 80% to promote the development of rust pustules. Evaluation is carried out 10 days after the inoculation. 0% means an efficacy which corresponds to that of the control, whereas an efficacy of 100% means that no infections are observed.

[5] = test system: Erysiphe graminis f.sp. tritici; experiment: Erysiphe test (wheat)/protective; format: in vivo; conditions: protective, application rate 250 g/ha, evaluation 7 days after inoculation
Method: as §1, with “(wheat)/protective” for “(barley)/curative”, “protective” for “curative”, “young” for “young plants are dusted with spores of Erysiphe graminis f.sp. hordei. 48 hours after the inoculation, the”, “rate. After the spray coating has dried on, the plants are dusted with spores of Erysiphe graminis f.sp. tritici.” for “rate.”

| melting point [°C] | Structure (SMILES) | Efficacy in % [1] [%] | inhibition at 6 ppm (Coriolus versicolor) [%] | Efficacy in % (Podosphaera leucotricha; application rate 1 g/ha) [%] | Efficacy in % (Podosphaera leucotricha; application rate 10 g/ha) [%] | Efficacy in % (Leptosphaeria nodorum) [%] | Efficacy in % [2] [%] | Efficacy in % (Puccinia recondita [3]) [%] | Efficacy in % (Puccinia recondita [4]) [%] | Efficacy in % [5] [%] |
| --- | --- | --- | --- | --- | --- | --- | --- | --- | --- | --- |
|  | CCOCCCNC(=O)n1cnn(CC2(c3ccc(F)cc3)OC2c2ccccc2Cl)c1=S (stereo not drawn) [Example 1] | 100 | 100 | 65 | 100 | 100 | 100 | 100 | 100 | 100 |
| 105 to 107 | COCCNC(=O)n1cnn(CC2(c3ccc(F)cc3)OC2c2ccccc2Cl)c1=S (stereo not drawn) [Example 2] |  |  | 88 | 100 |  | 100 | 100 | 100 |  |
| 104 to 106 | CC(C)NC(=O)n1cnn(CC2(c3ccc(F)cc3)OC2c2ccccc2Cl)c1=S (stereo not drawn) [Example 3] |  | 100 | 80 | 100 |  | 100 |  | 100 | 100 |
|  | Fc1ccc(C2(Cn3nc[nH]c3=S)OC2c2ccccc2Cl)cc1 (stereo not drawn) [A, 3-(2-chloro-phenyl)-2-(4-fluoro-phenyl)-2-[(4,5-dihydro-5-thiono-1,2,4-triazol-1-yl)-methyl]-oxirane, reference compound] |  |  | 57 | 92 |  |  |  |  |  |
